Key:
[1] = test system: Fusarium proliferatum; assay: In vitro antifungal activity, 96-well microtiter plates; assay type: cell-based; settings: in vitro 25° C., natamycin 2.5 ppm
Protocol: Subsequently, 100 μl of a Botrytis cinerea suspension prepared in PCB medium was used to inoculated each well with 2.5×10^3 spores/ml.
, the in vitro antifungal activity (%) of the individual active ingredients was assessed by calculating the reduction in mould growth observed in the presence of the active ingredient in comparison to the mould growth observed in the absence of the active ingredient. The expected antifungal activity (E in %) of the active ingredient combination was calculated according to the Colby equation (Colby, 1967): […]
The experiment was conducted as described in Example 13, except for the fact that the following compositions were tested:
Furthermore, Fusarium proliferatum was used for inoculation. The antifungal activity (in %) of the individual and combined active ingredients was determined according to the method described in Example 13.

[2] = test system: Penicillium italicum; assay: Treatment of wounded mandarins inoculated with Penicillium italicum (mould growth); assay type: in vivo
Protocol: Ten fresh, organic mandarins were used per treatment. The peel of each mandarin was wounded once using a cork borer according to the method described by de Lapeyre de Bellaire and Dubois (1987). Subsequently, each wound was inoculated with 10 μl of a Penicillium italicum suspension containing 1×10^4 of spores/ml. […] The pH of the composition was 4.0. […]

[3] = test system: Fusarium proliferatum; assay: Treatment of wounded bananas inoculated with Fusarium proliferatum (mould growth); assay type: in vivo; settings: for Number of moulded wounds/total number of 12 wounds: bananas 20° C.; for Observed antifungal activity O: bananas
Protocol: Four organic, unripe (green) bananas were used per treatment. The peel of each banana was wounded thrice using a cork borer according to the method described by de Lapeyre de Bellaire and Dubois (1987). Subsequently, each wound was inoculated with 15 μl of a Fusarium proliferatum suspension containing 1×10^5 of spores/ml. […] In addition, the antifungal compositions comprised 1.00% (w/w) methylhydroxyethylcellulose (MHEC), 0.40% (w/w) xanthan gum, 0.20% (w/w) anti-foaming agent, 0.30% (w/w) citric acid, 0.39% (w/w) lactic acid and 0.11% (w/w) potassium sorbate. The pH of the composition was 4.0. […] The treated, unripe bananas were incubated in a closed box in the dark at 20° C. and a relative air humidity of 95%, which was obtained in the presence of a saturated Na2HPO4 aqueous solution. During the first 20 days of incubation, a ripe (yellow) banana was included in the closed box to elevate the ethylene gas level and thus induce ripening of the treated, unripe bananas. […]
The expected antifungal activity (E in %) of the combined antifungal composition comprising both active ingredients was calculated according to the Colby equation (Colby, 1967): […]
wherein X and Y are the observed antifungal activities (in %) of the individual active ingredients X and Y, respectively. If the observed antifungal activity (O in %) of the combination exceeds the expected antifungal activity (E in %) of the combination and the synergy factor O/E is thus >1.0, the combined application of the active ingredients leads to a synergistic antifungal effect.

[4] = test system: Botrytis cinerea; assay: Treatment of wounded strawberries inoculated with Botrytis cinerea (mould growth); assay type: in vivo; settings: 250 ppm natamycin; for Number of moulded wounds/total number of 12 wounds (title: Number of moulded strawberries): strawberries 20° C.; for Observed antifungal activity O: strawberries
Protocol: Twelve fresh, organic strawberries were used per treatment. Each strawberry was wounded with a 0.5 mm long cut and each wound was inoculated with 10 μl of a Botrytis cinerea suspension containing 1×10^5 of spores/ml. […] The antifungal compositions also comprised 1.00% (w/w) methylhydroxyethylcellulose (MHEC), 0.40% (w/w) xanthan gum, 0.20% (w/w) anti-foaming agent, 0.30% (w/w) citric acid, 0.39% (w/w) lactic acid and 0.11% (w/w) potassium sorbate. The pH of the composition was 4.0. A composition without natamycin or prothioconazole was used as control. The treated strawberries were incubated in a closed box in the dark at 20° C. for 3 days.
After 2 and 3 days of incubation, the mould growth on the strawberries was assessed in a twofold manner: (i) the number of moulded strawberries per total of 12 strawberries was counted; and (ii) the antifungal activity (in %) of the individual and combined active ingredients was determined by calculating the reduction in mould growth observed on the strawberries treated with the antifungal composition in comparison to the mould growth on the strawberries treated with the control composition according to the Colby method described in Example 4 (Colby, 1967).

[5] = test system: Botrytis cinerea; assay: In vitro antifungal activity, 96-well microtiter plates; assay type: cell-based; settings: in vitro 25° C.
Protocol: The following compositions were tested: […] Subsequently, 100 μl of a Botrytis cinerea suspension prepared in PCB medium was used to inoculated each well with 2.5×10^3 spores/ml. […] The expected antifungal activity (E in %) of the active ingredient combination was calculated according to the Colby equation (Colby, 1967): […] wherein X and Y are the observed antifungal activities (in %) of the individual active ingredients X and Y, respectively.

C[C@@H]1C/C=C/C=C/C=C/C=C/[C@H](O[C@@H]2O[C@H](C)[C@@H](O)[C@H](N)[C@@H]2O)C[C@@H]2O[C@](O)(C[C@@H](O)C[C@H]3O[C@@H]3/C=C/C(=O)O1)C[C@H](O)[C@H]2C(=O)O [Natamycin, natamycin]
Observed antifungal activity O ([1]; 3 days, propiconazole 7.5 ppm or both): 0% | Observed antifungal activity O ([1]; 10 days, prothioconazole 0.5 ppm or both): 0% | Observed antifungal activity O ([2]; 250 ppm natamycin, 150 ppm prothioconazole or both, 13 days): 27% | Observed antifungal activity O ([2]; 250 ppm natamycin, 150 ppm prothioconazole or both, 21 days): 6% | Observed antifungal activity O ([2]; 250 ppm natamycin, 150 ppm prothioconazole or both, 26 days): 5% | Observed antifungal activity O ([2]; 250 ppm natamycin, 150 ppm prothioconazole or both, 29 days): 3% | Observed antifungal activity O ([2]; 250 ppm natamycin, 150 ppm prothioconazole or both, 34 days): 0% | Observed antifungal activity O ([2]; 500 ppm natamycin, 600 ppm prothioconazole or both, 25 days): 34% | Observed antifungal activity O ([2]; 500 ppm natamycin, 600 ppm prothioconazole or both, 28 days): 27% | Observed antifungal activity O ([2]; 500 ppm natamycin, 600 ppm prothioconazole or both, 31 days): 24% | Observed antifungal activity O ([2]; 500 ppm natamycin, 600 ppm prothioconazole or both, 34 days): 24% | Number of moulded wounds/total number of 12 wounds ([3]; 50 ppm natamycin, 250 ppm propiconazole or both, Day 29): 12/12 | Number of moulded wounds/total number of 12 wounds ([3]; 50 ppm natamycin, 250 ppm propiconazole or both, Day 32): 12/12 | Number of moulded wounds/total number of 12 wounds ([3]; 50 ppm natamycin, 250 ppm propiconazole or both, Day 34): 12/12 | Number of moulded wounds/total number of 12 wounds ([3]; 50 ppm natamycin, 250 ppm propiconazole or both, Day 36): 12/12 | Number of moulded wounds/total number of 12 wounds ([3]; 50 ppm natamycin, 250 ppm propiconazole or both, Day 39): 12/12 | Number of moulded wounds/total number of 12 wounds ([3]; 50 ppm natamycin, 250 ppm propiconazole or both, Day 42): 12/12 | Number of moulded wounds/total number of 12 wounds ([3]; 250 ppm natamycin, 100 ppm prothioconazole or both, Day 27): 12/12 | Number of moulded wounds/total number of 12 wounds ([3]; 250 ppm natamycin, 100 ppm prothioconazole or both, Day 28 and 29): 12/12 | Number of moulded wounds/total number of 12 wounds ([3]; 250 ppm natamycin, 500 ppm propiconazole or both, Day 34): 12/12 | Number of moulded wounds/total number of 12 wounds ([3]; 250 ppm natamycin, 500 ppm propiconazole or both, Day 36): 12/12 | Number of moulded wounds/total number of 12 wounds ([3]; 500 ppm natamycin, 150 ppm propiconazole or both, Day 26): 8/12 | Number of moulded wounds/total number of 12 wounds ([3]; 500 ppm natamycin, 150 ppm propiconazole or both, Day 26, listed as natamycin): 8 | Number of moulded wounds/total number of 12 wounds ([3]; 500 ppm natamycin, 150 ppm propiconazole or both, Days 27-29): 8/12 | Number of moulded wounds/total number of 12 wounds ([3]; 500 ppm natamycin, 150 ppm propiconazole or both, Days 27-29, listed as natamycin): 8 | Number of moulded wounds/total number of 12 wounds ([3]; 500 ppm natamycin, 150 ppm propiconazole or both, Days 31-32): 8/12 | Number of moulded wounds/total number of 12 wounds ([3]; 500 ppm natamycin, 150 ppm propiconazole or both, Days 31-32, listed as natamycin): 8 | Number of moulded wounds/total number of 12 wounds ([3]; 500 ppm natamycin, 250 ppm prothioconazole or both, Day 27, 28 and 29): 8/12 | Number of moulded wounds/total number of 12 wounds ([3]; 500 ppm natamycin, 250 ppm prothioconazole or both, Day 27, 28 and 29, listed as natamycin): 8 | Number of moulded wounds/total number of 12 wounds ([3]; 500 ppm natamycin, 1000 ppm propiconazole or both, Day 39): 12/12 | Number of moulded wounds/total number of 12 wounds ([3]; 500 ppm natamycin, 1000 ppm propiconazole or both, Day 42): 12/12 | Observed antifungal activity O ([3]; 50 ppm natamycin, 250 ppm propiconazole or both, 29 days): 4% | Observed antifungal activity O ([3]; 50 ppm natamycin, 250 ppm propiconazole or both, 32 days): 1% | Observed antifungal activity O ([3]; 50 ppm natamycin, 250 ppm propiconazole or both, 34 days): 1% | Observed antifungal activity O ([3]; 50 ppm natamycin, 250 ppm propiconazole or both, 36 days): 0% | Observed antifungal activity O ([3]; 50 ppm natamycin, 250 ppm propiconazole or both, 39 days): 0% | Observed antifungal activity O ([3]; 50 ppm natamycin, 250 ppm propiconazole or both, 42 days): 0% | Observed antifungal activity O ([3]; 250 ppm natamycin, 50 ppm propiconazole or both, 23 days): 23% | Observed antifungal activity O ([3]; 250 ppm natamycin, 50 ppm propiconazole or both, 27 days): 26% | Observed antifungal activity O ([3]; 250 ppm natamycin, 50 ppm propiconazole or both, 29 days): 29% | Observed antifungal activity O ([3]; 250 ppm natamycin, 500 ppm propiconazole or both, 34 days): 0% | Observed antifungal activity O ([3]; 250 ppm natamycin, 500 ppm propiconazole or both, 36 days): 0% | Observed antifungal activity O ([3]; 250 ppm natamycin, 500 ppm propiconazole or both, 39 days): 0% | Observed antifungal activity O ([3]; 250 ppm natamycin, 500 ppm propiconazole or both, 42 days): 0% | Observed antifungal activity O ([3]; 500 ppm natamycin, 150 ppm propiconazole or both, 27 days): 81% | Observed antifungal activity O ([3]; 500 ppm natamycin, 150 ppm propiconazole or both, 28 days): 81% | Observed antifungal activity O ([3]; 500 ppm natamycin, 150 ppm propiconazole or both, 29 days): 81% | Observed antifungal activity O ([3]; 500 ppm natamycin, 150 ppm propiconazole or both, 31 days): 74% | Observed antifungal activity O ([3]; 500 ppm natamycin, 150 ppm propiconazole or both, 32 days): 72% | Number of moulded wounds/total number of 12 wounds (title: Number of moulded strawberries) ([4]; 500 ppm prothioconazole or both, Day 2): 10/12 | Number of moulded wounds/total number of 12 wounds (title: Number of moulded strawberries) ([4]; 500 ppm prothioconazole or both, Day 2, listed as natamycin): 10 | Number of moulded wounds/total number of 12 wounds (title: Number of moulded strawberries) ([4]; 500 ppm prothioconazole or both, Day 3): 12/12 | Number of moulded wounds/total number of 12 wounds (title: Number of moulded strawberries) ([4]; 500 ppm prothioconazole or both, Day 3, listed as natamycin): 12 | Observed antifungal activity O ([4]; 500 ppm prothioconazole (row prints 50 ppm) or both, 3 days): 24% | Observed antifungal activity O ([4]; 500 ppm prothioconazole or both, 2 days): 31% | Observed antifungal activity O ([5]; 5 days, natamycin 0.63 ppm, propiconazole 1.00 ppm or both): 0% | Observed antifungal activity O ([5]; 5 days, natamycin 1.25 ppm, propiconazole 0.50 ppm, prothioconazole 0.13 ppm, or natamycin 1.25 ppm with either): 0% | Observed antifungal activity O ([5]; 10 days, natamycin 1.25 ppm, prothioconazole 0.13 ppm or both): 0%

Source: patent publication US20150141248A1, “ANTIFUNGAL COMPOSITIONS” (DSM IP ASSETS B.V., priority 2011, published 2015)
